We go through four molecules from US7964727B2, “Quinolonecarboxylic acid compounds having 5-HT4 receptor agonistic activity” (Pfizer Inc., priority 2003, dated 2011).

SMILES strings stand for the structures. Structures can show the parent of a compound that is named as a salt.

For `CC(C)n1c(=O)c(C(=O)NCC2CCN(CC3(O)CCOCC3)CC2)cc2c(Cl)cccc21`, the melting point (as a rule, the temperature of the solid-liquid transition) is 227 °C. With `Cc1cccc2c1cc(C(=O)NCC1CCN(CC3(O)CCOCC3)CC1)c(=O)n2C(C)C` the figure was 222 °C.

Consider `CC(C)n1c(=O)c(C(=O)NCC2CCN(CC3(O)CCOCC3)CC2)cc2c(F)cccc21` (as salt: hydrochloride), for which the melting point was determined as 275.7 °C.

For the molecule `Cc1cccc2c1cc(C(=O)NCC1CCN(CC3CCNCC3)CC1)c(=O)n2C(C)C` (as salt: hydrochloride), the melting point turned out to be 240.7 °C.
